Experimental findings from EP0309422A2, “New amidino tricycle derivatives” (ISTITUTO DE ANGELI S.p.A., priority 1987, dated 1989) are described below.

The Kd is a measure of binding affinity in units of concentration.

The target of the assay is T1, muscarinic receptors of the cerebral cortex (Rattus norvegicus, UniProt P08482).
T1 construct: displacement of ³H-pirenzepine from cerebral cortex homogenate; from tissue; host or cells: rat cerebral cortex homogenate
T1 sequence (P08482 1-460): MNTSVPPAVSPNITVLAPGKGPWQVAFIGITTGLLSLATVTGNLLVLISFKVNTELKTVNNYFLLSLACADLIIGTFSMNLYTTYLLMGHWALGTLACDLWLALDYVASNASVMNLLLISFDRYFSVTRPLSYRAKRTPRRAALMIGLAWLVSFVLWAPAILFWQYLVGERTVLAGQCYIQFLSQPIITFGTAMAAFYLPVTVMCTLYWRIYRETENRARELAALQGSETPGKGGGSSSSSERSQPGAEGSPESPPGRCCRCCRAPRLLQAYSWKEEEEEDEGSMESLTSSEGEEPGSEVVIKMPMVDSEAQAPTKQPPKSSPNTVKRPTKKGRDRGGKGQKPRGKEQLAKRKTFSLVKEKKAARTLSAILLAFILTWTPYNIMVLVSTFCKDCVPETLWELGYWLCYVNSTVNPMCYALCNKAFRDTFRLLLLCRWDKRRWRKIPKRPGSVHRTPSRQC
Description: Antimuscarinic activity: in vitro binding, displacement of ³H-pirenzepine from cerebral cortex homogenate. More on the design: species or system male CD-COOBBS rats. The settings on record: competition against 0.5 nM ³H-pirenzepine, 45 min at 30°C, KD from IC50 corrected for radioligand occupancy shift, read-out: Dissociation constants (KD) for ³H-pirenzepine binding. The method, then: Antimuscarinic activity was examined by studying the displacement of ³H-pirenzepine from cerebral cortex homogenate according to the procedure reported below: The cerebral cortex donors were male CD-COOBBS rats, 220-250 g body weight. The homogenization process was carried out in a Potter-Evelhjem apparatus in the presence of Na⁺/Mg⁺⁺ HEPES buffer; pH 7.4 (100 mM NaCl, 10 mM MgCl₂, 20 mM HEPES), by filtering the suspension through two layers of cheesecloth.
Binding curves for the under study compounds were derived indirectly from competition experiments against 0.5 nM ³H-pirenzepine labelling the muscarinic receptors of the cerebral cortex. 1 ml of the homogenate was incubated for 45 min at 30°C in the presence of a marker ligand and different concentrations of the cold ligand, conditions under which equilibrium was reached as determined by appropriate association experiments. The incubation was terminated by centrifugation (12,000 rpm for 3 min) at room temperature using an Eppendorf microcentrifuge. The resultant pellet was washed twice with 1.5 ml saline to remove the free radioactivity and it was allowed to drain for some hours. The tips of the tubes containing the pellet were cut off and 200 µl of tissue solubilizer (Lumasolve, Lumac) were added and left to stand overnight. Radioactivity was then counted after addition of 4 ml of liquid scintillation mixture (Dimilume/Toluene 1:10 v:v, Packard)
Assays were carried out in triplicate or quadruplicate and the non-specific binding was defined as the radioactivity bound or entrapped in the pellet when the incubation medium contained 1 µM atropine sulphate. Non-specific binding avaraged less than 30%. KD values (dissociation constants) were obtained by non-linear regression analysis on the basis of a one binding site model with TOPFIT-pharmacokinetic programme package (G. HEINZEL, "Pharmacokinetics during drug development: data analysis and evaluation techniques" Eds. G. BOLZER and J.M. VAN ROSSUM; p. 207, G. Fisher, New York, 1982) after correction for the radioligand occupancy shift according to the equation: KD = IC₅₀/1 + *C/*KD, where *C and *KD represent the concentration and the dissociation constant of the radioligand used, respectively.

Turning to `N=C(N)N1CCN(CC(=O)N2c3ccccc3NC(=O)c3ccccc32)CC1` [Compound 3, 5,10-dihydro-5-[2-(4-guanyl-piperazin-1-yl)-acetyl]-11H-dibenzo [b,e] [1,4]-diazepin-11-one], the Kd came to 6 nM.

Take `N=C(N)N1C2CCC1CC(CC(=O)N1c3ccccc3NC(=O)c3cscc31)C2` (stereo not drawn) [Compound 19, 4,9-dihydro-4-[2-(8-guanyl-8-azabicyclo[3.2.1]-octan-3-yl)-acetyl]-10H-thieno[3,4-b] [1,5]-benzodiazepin-10-one]: the Kd was determined as 4 nM.

In the case of `N=C(N)N1CCC(CC(=O)N2c3ccccc3NC(=O)c3ccccc32)CC1` [Compound 20, 5,10-dihydro-5-[2-(1-guanyl-piperidin-4-yl)-acetyl]-11H-dibenzo b,e [1,4]-diazepin-11-one], the Kd is 3.2 nM.

Consider `N=C(N)N1CCCC(CC(=O)N2c3ccccc3NC(=O)c3ccccc32)C1` (stereo not drawn) [Compound 26, 5,10-dihydro-5-[2-(1-guanyl-piperidin-3-yl)-acetyl]-11H-dibenzo [b,e] [1,4]-diazepin-11-one], for which the Kd was 9 nM.

Take `N=C(N)N1CCC(OC(=O)C2c3ccccc3NC(=O)c3ccccc32)CC1` (stereo not drawn) [Compound 31, 5,6-dihydro-11-[(1-guanyl-4-piperidinyl)-oxycarbonyl]-11H-dibenz[b,e]-azepin-6-one]: the Kd was 7.7 nM.

For `CC(=N)N1CCC(CC(=O)N2c3ccccc3NC(=O)c3ccccc32)CC1` [Compound 60, 5,10-dihydro-5-[2-(1-α-iminoethyl-piperidin-h-yl)-acetyl]-11H-dibenzo[b,e] [1,4]-diazepin-11-one], the equilibrium dissociation constant (Kd) stood at 2.7 nM.

Turning to `CC(=N)N1CCCC(CC(=O)N2c3ccccc3NC(=O)c3ccccc32)C1` (stereo not drawn) [Compound 61, 5,10-dihydro-5-[2-(1-α-iminoethyl - piperidin-3-yl)-acetyl]-11H-dibenzo[b,e] [1,4]-diazepin-11-one], the Kd turned out to be 5 nM.

Regarding `CC(=N)N1CCCC(C(=O)N2c3ccccc3NC(=O)c3ccccc32)C1` (stereo not drawn) [Compound 62, 5,10-dihydro-5-[(1-α-iminoethyl-piperidin-3-yl)-carbonyl]-11H-dibenzo[b,e] [1,4]-diazepin-11-one], the dissociation constant (Kd) came to 8 nM.

On to `O=C1Nc2ccccc2N(C(=O)CC2CCN(C3=NCCN3)CC2)c2ccccc21` [Compound 72], for which the Kd was 4 nM.

For `CNC(=N)C1CCCN(CC(=O)N2c3ccccc3NC(=O)c3ccccc32)C1` (stereo not drawn) [Compound 78, 5,10-dihydro-5-[2-(3-N-methylguanyl-piperidin-1-yl)-acetyl]-11H-dibenzo[b,e] [1,4]-diazepin-11-one], the Kd was 5 nM.

For the compound `O=C1Nc2ccccc2N(C(=O)CCN2C=NCCC2)c2ccccc21` [Compound 81, 5,10-dihydro-5-[3-(1,4,5,6-tetrahydropirimidin-1-yl)-propionyl]-11H-dibenzo[b,e] [1,4]-diazepin-11-one], the Kd amounted to 10 nM.

In the case of `O=C1Nc2cccnc2N(C(=O)CCN2C=NCCC2)c2ccccc21` [Compound 82, 5,11-dihydro-11-[3-(1,4,5,6-tetrahydropirimidin-1-yl)-propionyl]-6H-pyrido[2,3-b] [1,5]-benzodiazepin-6-one], the Kd is 10 nM.

Consider `O=C1Nc2ccccc2N(C(=O)CCN2C=NCCC2)c2cscc21` [Compound 83, 4,9-dihydro-4-[3-(1,4,5,6-tetrahydropirimidin-1-yl)-propionyl]-10H-thieno[3,4-b] [1,5]-benzodiazepin-10-one], for which the Kd came to 7 nM.

Consider `CC1=NCCCN1CCC(=O)N1c2ccccc2NC(=O)c2ccccc21` [Compound 84, 5,10-dihydro-5-[3-(2-methyl-1,4,5,6-tetrahydropirimidin-1-yl)-propionyl]-11H-dibenzo[b,e] [1,4]-diazepin-11-one], for which the Kd was 2.5 nM.

Turning to `CC1=NCCCN1CCC(=O)N1c2ccccc2C(=O)Nc2cccnc21` [Compound 85, 5,11-dihydro-11-[3-(2-methyl-1,4,5,6-tetrahydropirimidin-1-yl)-propionyl]-6H-pyrido[2,3-b] [1,4]-benzodiazepin-6-one], the Kd was 5 nM.
